The source of these data is patent US20090311295A1, “PARTICLES WITH HIGH UNIFORM LOADING OF NANOPARTICLES AND METHODS OF PREPARATION THEREOF” (priority 2006, published 2009).

Data set [1] in a line: X-ray diffraction (XRD) crystallinity. It counts as physicochemical. The settings on record: crystalline area divided by total scan area.
Procedure: X-ray diffraction (XRD) was carried out on the raw materials of PS, PMMA and brilliant blue G. Crystallinity of these materials was calculated by dividing the crystalline area (obtained by subtracting amorphous region) by the total scan area. […] XRD was then run on the melt mixtures of brilliant blue G with PS and PMMA.
Data set [2] in a line: Solubility of raw materials and polymer melt mixtures. The settings on record: for MeCl2 Solubility: methylene chloride, Table III; for solubility in organics: organic solvents.

For `CCOc1ccc(Nc2ccc(/C(=C3C=C/C(=[N+](/CC)Cc4cccc(S(=O)(=O)[O-])c4)C=C/3C)c3ccc(N(CC)Cc4cccc(S(=O)(=O)[O-])c4)cc3C)cc2)cc1.[Na+]` [Brillian blue G, Brilliant blue G], in data set [1], the “XRD % Crystallinity” value stood at 22.3%.

For `O=C1/C(=C2\Nc3ccc(S(=O)(=O)[O-])cc3C2=O)Nc2ccc(S(=O)(=O)[O-])cc21.[Na+].[Na+]` [FD&C blue #2], the “XRD % Crystallinity” value in data set [1] is listed as 36.4%. Also, in data set [2], the “MeCl2 Solubility” value was “−”, the “solubility in organics” value is reported as “insoluble in most organics” and the “water solubility” value was “very water soluble”.

On to `CC1(C)C(/C=C/C=C/C=C/C=C2\N(CCCCS(=O)(=O)O)c3ccc4ccccc4c3C2(C)C)=[N+](CCCCS(=O)(=O)[O-])c2ccc3ccccc3c21` [Indocyanine green], for which the “XRD % Crystallinity” value in data set [1] is 24.8%. In data set [2], the “MeCl2 Solubility” value is given as “−”, the “solubility in organics” value is “insoluble in most organics” and the “water solubility” value was “very water soluble”.

For Chlorophyll, the “XRD % Crystallinity” value in data set [1] is recorded as 19.1%. In addition, in data set [2], the “MeCl2 Solubility” value was “−”, the “solubility in organics” value was “insoluble in most organics” and the “water solubility” value is “water soluble”.

As to `CC1=C(/C=C/C(C)=C/C=C/C(C)=C/C=C/C=C(C)/C=C/C=C(C)/C=C/C2=C(C)CCCC2(C)C)C(C)(C)CCC1` [beta-Carotene, β-carotene], in data set [2], the “MeCl2 Solubility” value is reported as “+”, the “solubility in organics” value is on record as “slightly soluble in some organics” and the “water solubility” value was “nearly water insoluble”.

`CCN(Cc1cccc(S(=O)(=O)[O-])c1)c1ccc(C(=C2C=CC(=[N+](CC)Cc3cccc(S(=O)(=O)[O-])c3)C=C2)c2ccccc2S(=O)(=O)[O-])cc1.[Na+].[Na+]` [FD&C blue #1]: in data set [2], the “MeCl2 Solubility” value is “−”, the “solubility in organics” value is “insoluble in most organics” and the “water solubility” value is reported as “very water soluble”.

Take `[Cu+2].c1ccc2c(c1)-c1nc-2nc2[n-]c(nc3nc(nc4[n-]c(n1)c1ccccc41)-c1ccccc1-3)c1ccccc21` [Copper(II) phthalocyanine]: the “XRD % Crystallinity” value in data set [1] came out at 67.1%. In data set [2], the “MeCl2 Solubility” value was “−”, the “solubility in organics” value is “insoluble in most organics” and the “water solubility” value was “water insoluble”.
